“Also recorded” adds a separate entry of the source.
Assays:
human PBM cells = details: read-out: Cytotoxicity IC50 PBM; uninfected PHA-stimulated human PBM cells
HIV-1/LAI = assay type: cell-based; details: for EC50: read-out: Anti-HIV-1 activity in human PBM cells EC50, HIV-1/LAI, median effect method; for activity against HIV-1 (in words): human PBM cells
in vitro [1] = details: human, uninfected PHA-stimulated human PBM cells
in vitro [2] = details: human
in vitro [3] = details: African green monkey, Vero (African green monkey kidney) cells
[4] = system: CEM (T-lymphoblastoid cell line)
[5] = system: Vero (African green monkey kidney) cells; details: read-out: Cytotoxicity IC50 Vero
HIV-1 = details: ref De Corte 2005; Pauwels et al. 1993; cited from earlier work

SMILES	IC50 (in vitro [1]) [µM]	IC50 (in vitro [2]) [µM]	IC50 (in vitro [3]) [µM]	also measured
Cc1cn([C@H]2C[C@H](N=[N+]=[N-])[C@@H](CO)O2)c(=O)[nH]c1=O [AZT, 3′-Azido-2′,3′-dideoxythymidine, reference compound]				IC50 (human PBM cells): > 100 µM
Cc1ccc(NC(C#N)c2ccc(OCc3ccc(Cl)cc3Cl)cc2)cc1 (stereo not shown) [Compound 2h, 2-[4-(2,4-Dichlorobenzyloxy)phenyl]-2-(4-toluidino)acetonitrile]	15	11.7	39.7	EC50 (HIV-1/LAI): 3.1 µM
Cc1ccc(N2C(=O)CCC2(C#N)c2ccc(OC(C)C)cc2)cc1 (stereo not shown) [Compound 3e, 2-(4-Isopropoxyphenyl)-1-(4-methylphenyl)-5-oxo-2-pyrrolidinecarbonitrile]	> 100	17	46.5	
Cc1ccc(N2C(=O)CCC2(C#N)c2ccc(OCc3ccccc3)cc2)cc1 (stereo not shown) [Compound 3g, 2-(4-Benzyloxyphenyl)-1-(4-methylphenyl)-5-oxo-2-pyrrolidinecarbonitrile]	> 100	30.3	53.9	
Cc1ccc(N2C(=O)CCC2(C#N)c2ccc(OCc3ccc(Cl)cc3Cl)cc2)cc1 (stereo not shown) [Compound 3h, 2-[4-(2,4-Dichlorobenzyloxy)phenyl]-1-(4-methylphenyl)-5-oxo-2-pyrrolidinecarbonitrile]	9.7	6.6	21.8	
Cc1cc(C)cc(NC(C(N)=O)c2c(Cl)cccc2Cl)c1 (stereo not shown) [Compound 4, 2-(2,6-Dichlorophenyl)-2-(3,5-dimethylanilino)acetamide]	6.1	5.8	68.7	activity against HIV-1 (in words) (HIV-1/LAI): very potent; also recorded: very active
Cc1ccc(N2C(=O)CCC2(CN)c2ccccc2)cc1 (stereo not shown) [Compound 5a, 5-Aminomethyl-1-(4-methylphenyl)-5-phenyl-2-pyrrolidinone]	54.1	53.6	> 100	
Cc1ccc(N2C(=O)CCC2(CN)c2ccc(OCc3ccccc3)cc2)cc1 (stereo not shown) [Compound 5f, 5-Aminomethyl-5-(4-benzyloxyphenyl)-1-(4-methylphenyl)-2-pyrrolidinone]	15.9	33.7	12.3	
NCC1(c2ccccc2)CCCN1C(=O)c1ccc(Br)cc1 (stereo not shown) [Compound 10]				activity against HIV-1 (in words) (HIV-1/LAI): no inhibition; EC50 (HIV-1/LAI): > 100 µM; EC90 (HIV-1/LAI; read-out: Anti-HIV-1 activity in human PBM cells EC90, HIV-1/LAI, median effect method): > 100 µM; IC50 (human PBM cells): > 100 µM; IC50 [4]: 96.1 µM; IC50 [5]: > 100 µM
CC(=O)c1ccc(C)cc1NC(C(N)=O)c1c(Cl)cccc1Cl (stereo not shown) [loviride]				inhibitory concentration relative to the cytotoxic concentration (fold less) (HIV-1): 10,000 fold
